According to patent US8858995B2, “Methods and compositions for controlled delivery of phytochemical agents” (priority 2008, dated 2014):
Where two headings read alike, the source gives them in different places.

Tests used:
[1] = extruded implants
[2] = Tissue curcuminoid levels after coated implants (UPLC); type: in vivo, A/J mice; details: female, A/J, mouse
Method: Briefly, liver and brain tissues (500 and 400 mg, respectively) from each animal were homogenized in 3 ml PBS (pH 7.4) containing 200 μl of 0.5 M sodium acetate, and extracted with ethyl acetate. After evaporation of the pooled extracts, the residue was reconstituted in 100 μl acetonitrile and analyzed by UPLC using Shimadzu UPLC system (Kyoto, Japan), with a Shim-Pack XR-ODS II reverse phase column (Shimadzu; 150×3.0 mm i.d., 2.2 μm).

[3] = tested on: 17β-estradiol-induced mammary tumors; type: in vivo, ACI rats; details: for animals that developed palpable tumors: control 100% after 26 wks
Excerpt: Cancer chemoprevention approaches have been used to manipulate tumorigenesis and reduce the transformation of normal/pre-cancerous cells to malignancy. Many compounds that have worked in cell culture studies though have failed in animal models and clinical trials due to lack of bioavailability. Additionally, the high doses required to elicit biological response can be toxic. The following experiments were designed to test the hypothesis that the effective dose of phytochemical agents, administered systemically via implantation of a silastic implant incorporating the agents, can be reduced substantially compared with the traditional dietary route and were also designed to determine the effect of individual phytochemical agents on mammary carcinogenesis. The silastic implants used in the experiments described below were fabricated by filling silastic tubing with a desired agent. Although the silastic implants are not biodegradable like compositions disclosed herein comprising biocompatible polymeric matrices, the silastic implants provide proof of concept that a reduced dose of phytochemical agents administered systemically can be effective in inhibiting mammary carcinogenesis.
Initially, an experiment was performed by subcutaneously implanting individual phytochemical agents using a large number of animals per group (n=17-19). […] Two weeks later, all groups received 3 cm biocompatible silastic implants incorporating 27 mg of 17β-estradiol. Six months later, after all animals had developed mammary tumors, the animals were euthanized and the mammary tumors were counted and their size measured. […] However, 30-55% reductions were found in the tumor burden with all test agents (FIG. 23A) as measured by tumor volume, with ellagic acid resulting in the most significant reduction in tumor burden (55%). The foregoing results thus support the effectiveness of ellagic acid, a significant component in certain berries, as an exemplary phytochemical compound that can be administered via a biocompatible silastic implant to inhibit or reduce estrogen-induced ACI rat mammary carcinogenicity.
To further evaluate the effectiveness of ellagic acid in estrogen-induced mammary carcinogenicity and to determine whether the effective dose of ellagic acid administered systemically via a biocompatible silastic implant can be reduced substantially compared with the traditional dietary route, ellagic acid was administered either in the diet (400 ppm) or by subcutaneous implantation of a biocompatible silastic implant incorporating an effective amount of ellagic acid (27 mg/implant, 4 implants). […] All groups received diet and water ad libitum. The body weight and diet consumption were recorded weekly. The animals were palpated for mammary tumors, and were euthanized when the largest tumor reached >1 cm. The first tumor in the control group appeared after nearly 84 days. However, the first tumor appearance with ellagic acid implants or ellagic acid-supplemented diet was somewhat delayed by 2 and 3 weeks, respectively. The control group reached 100% tumor incidence after 26 wks, but only 75% or 69% of the animals developed palpable tumors in the groups that received ellagic acid by implants or diet, respectively. […] Similar reductions were also observed in the tumor multiplicity (4.00±0.63 and 4.80±0.4 tumors/rat with implant and diet, respectively versus 6.77±0.87 in the control group) (FIG. 24A).
The total amount of ellagic acid administered during the entire duration of the study by diet was 800 mg/rat while the subcutaneous implantation of the biocompatible silastic implant incorporating ellagic acid delivered only 1.48±0.87 mg per implant, as determined by HPLC measurement of the material left in implants recovered after termination.

DNA adducts in the liver = experiment: Liver DNA adducts after a bolus dose of dibenzo[a,1]pyrene (32P-postlabeling); type: in vivo, Sprague-Dawley rats; details: 2 cm PCL:cyclodextrin (9:1) matrix, 10% w/w; bolus dibenzo[a,1]pyrene; 5 days after carcinogen
Method: Eleven days later, the animals were treated with a bolus dose of dibenzo[a,1]pyrene. The animals were then euthanized 5 days after the carcinogen treatment and liver samples were collected.

DBP-DNA adducts = experiment: Dibenzo[a,I]pyrene (DBP)-DNA adducts in lung (32P-postlabeling); type: in vivo, A/J mice; details: two 1.5 cm coated implants; DBP implant; 3 weeks
Method: (§1) To assess the coated implants (i.e., where the compositions were in the form of coatings), in vivo studies were also performed. […] All groups of animals were also treated with dibenzo[a,I]pyrene (DBP) via polymeric implants (1-cm, 1.4 mm dia, 5% DBP load) at the same time. Implants were grafted subcutaneously, and animal were euthanized after 3 weeks. […] In both cases, animals were euthanized by CO2 asphyxiation and selected tissues (lung, liver and brain) were collected and stored at −80° C. until processing. Implants were also recovered, dried under vacuum and stored in amber vials under argon at 4° C. until analysis.
To analyze the formation of DNA adducts, DNA was isolated from lung tissue (200 mg) by treatment of the isolated crude nuclei with RNases and proteinase K, followed by extractions with phenol, phenol:Sevag and Sevag. DNA was recovered by ethanol precipitation and its concentration was measured spectrophotometrically considering 1 A260 equals 50 μg DNA. DNA adducts were analyzed by nuclease P1-mediated ^32P-postlabeling/TLC assay and expressed as adducts per 10^9 nucleotides.

[4] = mouse, sc
Method: as §1
The supernatants were diluted with ethanol:DCM (80:20) and their concentrations were measured spectrophotometrically at maximal absorbance and the concentrations were calculated against standard curves of individual compounds.

[5] = In vitro release from coated (and extruded) polymeric implants; type: physicochemical
Method: To formulate the “coated” polymeric implants, blank P-80 implants (1.4 mm dia) were then prepared by dissolving P-80:F68 (9:1) in dichloromethane, followed by evaporation of the solvent in a Petri dish under hood and extrusion of the molten polymer through a silastic tubing mold, similar to the methodologies described herein above. […] For coating, one end of the blank implant (2.5-3.5 cm) was inserted into a silastic tube plug (6 mm long, 1.4 mm dia) while the other end of the plug was attached with a pipet tip. Coatings were then added by dipping the blank implant into the solution with intermittent drying with cool air using a commercial hair dryer and placing them under hood. […] The assembly was placed under hood overnight to remove the residual DCM, implants were excised in 1 or 2 cm lengths and stored in amber vials under argon at -20° C. until used. The rate of in vitro release for the implants was subsequently measured. […] The vials were placed in a water bath (Julabo S W 23, Seelback, Germany) at 37° C. with constant agitation at 110 rpm. The medium was changed every 24 h.

[6] = tested on: human lung cancer A549 cell xenografts; experiment: Human lung cancer xenograft inhibition by withaferin A; type: in vivo, athymic nude mice
Method: Additionally, to assess the effect of the implants on tumor xenografts, five- to six-week old female athymic nude mice (Harlan Laboratories, Indianapolis, Ind.) were acclimated for a week and then inoculated with human lung cancer (A549) cells (3×10^6 cells) in matrigel. […] Animals were weighed and the tumors were measured by a digital caliper weekly. At the end of 6 to 8 weeks, animals were euthanized by CO2 asphyxiation, tumors were collected and measured.

breast cancer incidence = details: pre-menopausal women with a family history of breast cancer, high consumption; cited from earlier work

Molecule: CC(=O)OC(C)(C)/C=C/C(=O)[C@](C)(O)[C@H]1[C@H](O)C[C@@]2(C)[C@@H]3CC=C4[C@H](C[C@H](O)C(=O)C4(C)C)[C@]3(C)C(=O)C[C@]12C [cucurbitacin B]
- burst release and local toxicity [1]: burst release phenomenon and sign of local toxicity

Molecule: COc1cc(/C=C/C(O)=C/C(=O)/C=C/c2ccc(O)cc2)ccc1O [curcuminoid II, demethoxycurcumin]
- concentration at 21 days ([2]; in vivo): 1 ng/g

Molecule: O=C(/C=C/c1ccc(O)cc1)CC(=O)/C=C/c1ccc(O)cc1 [curcuminoid III, bisdemethoxycurcumin]
- concentration at 21 days ([2]; brain, subcutaneous, 2 1.5 cm implants (60 mg/implant, approximately 10% drug load), delivered individually by implant, 21 days, read-out: level in brain tissue): 6.4 ng/g
- concentration at 21 days ([2]; liver, subcutaneous, 2 1.5 cm implants (60 mg/implant, approximately 10% drug load), delivered individually, two 1.5-cm implants, 21 days, read-out: level in the liver): 5 to 6 ng/g

Molecule: O=c1oc2c(O)c(O)cc3c(=O)oc4c(O)c(O)cc1c4c23 [ellagic acid]
- reduction in tumor burden (tumor volume) ([3]; 3 cm silastic implant, 27 mg agent, six months): 55%
- tumor multiplicity ([3]; diet): 4.80±0.4 tumors/rat
- delay of first tumor appearance ([3]; diet 400 ppm): 3 weeks
- animals that developed palpable tumors ([3]; diet 400 ppm): 69%
- tumor burden ([3]; dietary 400 ppm): 269±61 mm^3
- tumor multiplicity ([3]; implant): 4.00±0.63 tumors/rat
- tumor burden ([3]; implant (slow release)): 454±105 mm^3
- animals that developed palpable tumors ([3]; implants): 75%
- amount delivered per implant over the study ([3]; rat, in vivo): 1.48±0.87 mg per implant
- delay of first tumor appearance ([3]; silastic implants, 27 mg/implant, 4 implants): 2 weeks

Molecule: Cc1c(-c2cnccn2)ssc1=S [oltipraz]
- DNA adducts in the liver (DNA adducts in the liver): reduced the amount of B[a]P-induced DNA adducts
- lung DBP-DNA adduct levels (DBP-DNA adducts): reduction was statistically significant
- total release in vivo at the end of 3 weeks [4]: 18.6%
- release in PBS alone ([5]; 37° C., no serum): essentially no release
- release kinetics ([5]; PBS with 10% bovine serum, 60 days): essentially zero-order kinetics
- cumulative release after 60 days ([5]; in vitro): ~27%
- cumulative release over 3 weeks (21 days) ([5]; in vitro, PBS with 10% bovine serum): about 12%

Molecule: CC1=C(CO)C(=O)O[C@@H]([C@@H](C)[C@H]2CC[C@H]3[C@@H]4C[C@H]5O[C@]56[C@@H](O)C=CC(=O)[C@]6(C)[C@H]4CC[C@]23C)C1 [withaferin A]
- lung DBP-DNA adduct levels (DBP-DNA adducts): reduction in the DNA adduct levels
- burst release and local toxicity [1]: burst release phenomenon and sign of local toxicity
- total dose administered via the implants ([6]; calculated from residual amount in the implants, versus 5.6 mg i.p.): 2.69 mg
- reduction in the growth of the tumor ([6]; coated implants, two 1.5-cm, 5% drug load): 51%
- body weight versus sham ([6]; end of the 8-week study, implants): essentially the same body weight
- reduction of the tumor ([6]; intraperitoneally 4 mg/kg): no reduction
- inhibition of the tumor ([6]; intraperitoneally 8 mg/kg on alternate days): 53%

Molecule: vitamin E
- reduction in breast cancer incidence (breast cancer incidence): 43%
